Experimental data from US5750530A, “Pharmaceutical diketopiperazine compounds” (Xenova Limited, priority 1994, dated 1998).
Structures can show the parent of a compound that is named as a salt.

Molecular target: PAI-1 (Homo sapiens, UniProt P05121)
Assay: biochemical
Assay type: biochemical
Details: for IC50: PAI chromogenic substrate assay
In short: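 Compound preincubated with PAI-1 before addition to a tPA system; residual tPA converts plasminogen to plasmin, which cleaves chromogenic substrate S2251. Released p-nitroaniline read at 405 nm; values given as % inhibition at set concentrations or IC50.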

PAI-1, sequence (P05121 24-402): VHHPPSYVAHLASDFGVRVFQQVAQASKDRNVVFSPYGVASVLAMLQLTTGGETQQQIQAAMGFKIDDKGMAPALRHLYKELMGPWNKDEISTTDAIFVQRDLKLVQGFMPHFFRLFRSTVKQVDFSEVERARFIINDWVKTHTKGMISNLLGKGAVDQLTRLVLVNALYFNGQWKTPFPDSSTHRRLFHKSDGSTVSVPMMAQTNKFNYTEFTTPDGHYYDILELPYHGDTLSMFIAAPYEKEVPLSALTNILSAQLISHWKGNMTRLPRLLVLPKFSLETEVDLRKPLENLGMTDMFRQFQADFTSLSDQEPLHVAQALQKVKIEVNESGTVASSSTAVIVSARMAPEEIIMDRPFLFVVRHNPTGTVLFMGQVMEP

Structure (SMILES)	% Inhibition (5 μm) [%]	% Inhibition (20 μm) [%]	IC50 [µM]	% Inhibition (100 μm) [%]
Cc1ccc(/C=c2\[nH]c(=O)/c(=C/c3ccc(SCCN(C)C)s3)[nH]c2=O)cc1 [Compound 5460, (3Z,6Z)-3-(5-(2-Dimethylaminoethylthio)-2-thienyl)methylene-6-(4-methylbenzylidene)-2,5-piperazinedione]	34	83	12.2	
COC(=O)c1ccc(/C=c2\[nH]c(=O)/c(=C/c3ccc(SCCN(C)C)cc3)[nH]c2=O)cc1 [Compound 5478.HCl, (3Z,6Z)-3-(4-(2-Dimethylaminoethylthio)benzylidene)-6-(4-methoxycarbonylbenzylidene)-2,5-piperazinedione]	3	60	16.9	
CN(C)CCSc1ccc(/C=c2\[nH]c(=O)/c(=C/c3cccc(C#N)c3)[nH]c2=O)cc1 [Compound 5476, (3Z,6Z)-3-(3-Cyanobenzylidene)-6-(4-(2-dimethylaminoethylthio)benzylidene)-2,5-piperazinedione]	21	38		
COc1cc(/C=c2\[nH]c(=O)/c(=C/c3ccc(SCCN(C)C)cc3)[nH]c2=O)ccc1OCc1ccc([N+](=O)[O-])cc1 [Compound 5490.HCl, (3Z,6Z)-6-(4-(2-Dimethylaminoethylthio)benzylidene)-3-(3-methoxy-4-(4-nitrobenzyloxy)benzylidene)-2,5-piperazinedione]	12	66	10.8	
CN(C)CCSc1ccc(/C=c2\[nH]c(=O)/c(=C/c3ccsc3)[nH]c2=O)s1 [Compound 5257, (3Z,6Z)-3-(5-(2-Dimethylaminoethylthio)-2-thienyl)methylene-6-(3-thienyl)methylene-2,5-piperazinedione]		77	7	41
CN(C)CCSc1ccc(/C=c2\[nH]c(=O)/c(=C/c3ccc(C#N)cc3)[nH]c2=O)cc1 [Compound 5462, (3Z,6Z)-3-(4-Cyanobenzylidene)-6-(4-(2-dimethylaminoethylthio)benzylidene)-2,5-piperazinedione]	41	43		
CC(C)/C=c1\[nH]c(=O)/c(=C/c2ccc(SCCN(C)C)s2)[nH]c1=O [Compound 5448, (3Z,6Z)-3-(5-(2-Dimethylaminoethylthio)-2-thienyl)methylene-6-(2-methylpropylidene)-2,5-piperazinedione]	0	0		
CN(C)CCSc1ccc(/C=c2\[nH]c(=O)/c(=C/c3ccc4c(c3)OCO4)[nH]c2=O)cc1 [Compound 5491.HCl, (3Z,6Z)-6-(4-(2-Dimethylaminoethylthio)benzylidene)-3-(3,4-methylenedioxybenzylidene)-2,5-piperazinedione]	0	47	20	
CN(C)CCSc1ccc(/C=c2\[nH]c(=O)/c(=C/c3ccc(Cl)cc3)[nH]c2=O)cc1 [Compound 5437, (3Z,6Z)-3-(4-Chlorobenzylidene)-6-(4-(2-dimethylaminoethylthio)benzylidene)-2,5-piperazinedione]	8	41	20	
COC(=O)c1ccc(/C=c2\[nH]c(=O)/c(=C/c3ccc(SCCN(C)C)s3)[nH]c2=O)cc1 [Compound 5477.HCl, (3Z,6Z)-3-(5-(2-Dimethylaminoethylthio)-2-thienyl)methylene-6-(4-methoxycarbonylbenzylidene)-2,5-piperazinedione]	19	69	15.4	
CN(C)CCSc1ccc(/C=c2\[nH]c(=O)/c(=C/c3ccc(Br)cc3)[nH]c2=O)cc1 [Compound 5480.HCl, (3Z,6Z)-3-(4-Bromobenzylidene)-6-(4-(2-dimethylaminoethylthio)benzylidene)-2,5-piperazinedione]	52	76		
CN(C)CCSc1ccc(/C=c2\[nH]c(=O)/c(=C/c3cn(C)c4ccccc34)[nH]c2=O)s1 [Compound 5473, (3Z,6Z)-6-(5-(2-Dimethylaminoethylthio)-2-thienyl)methylene-3-(1-methyl-3-indolyl)methylene-2,5-piperazinedione]	25	61	13.8	
CN(C)CCSc1ccc(/C=c2\[nH]c(=O)/c(=C/c3ccc(OCc4ccccc4)cc3)[nH]c2=O)s1 [Compound 5482.HCl, (3Z,6Z)-6-(4-Benzyloxybenzylidene)-3-(5-(2-dimethylaminoethylthio)-2-thienyl)methylene-2,5-piperazinedione]	13	59		
CN(C)CCSc1ccc(/C=c2\[nH]c(=O)/c(=C/c3ccc(C#N)cc3)[nH]c2=O)cc1 [Compound 5462.HCl, (3Z,6Z)-3-(4-Cyanobenzylidene)-6-(4-(2-dimethylaminoethylthio)benzylidene)-2,5-piperazinedione]	45	41		
COc1cccc(/C=c2\[nH]c(=O)/c(=C/c3ccc(SCCN(C)C)s3)[nH]c2=O)c1 [Compound 5314, (3Z,6Z)-3-(5-(2-Dimethylaminoethylthio)-2-thienyl)methylene-6-(3-methoxybenzylidene)-2,5-piperazinedione]			3.5	
CN(C)CCSc1ccc(/C=c2\[nH]c(=O)/c(=C/c3ccc(Cl)c(Cl)c3)[nH]c2=O)cc1 [Compound 5465.HCl, (3Z,6Z)-3-(3,4-Dichlorobenzylidene)-6-(4-(2-dimethylaminoethylthio)benzylidene)-2,5-piperazinedione]	42	76	2.6	
CN(C)CCSc1ccc(/C=c2\[nH]c(=O)/c(=C/c3ccc(C(C)(C)C)cc3)[nH]c2=O)cc1 [Compound 5440, (3Z,6Z)-3-(4-(2-Dimethylaminoethylthio)benzylidene)-6-(4-tert-butylbenzylidene)-2,5-piperazinedione]	11	30		
CN(C)CCSc1ccc(/C=c2\[nH]c(=O)/c(=C/c3ccc4c(c3)OCO4)[nH]c2=O)cc1 [Compound 5491, (3Z,6Z)-6-(4-(2-Dimethylaminoethylthio)benzylidene)-3-(3,4-methylenedioxybenzylidene)-2,5-piperazinedione]	0	65	14.2	
CN(C)CCSc1ccc(/C=c2\[nH]c(=O)/c(=C/c3cccc(C(F)(F)F)c3)[nH]c2=O)s1 [Compound 5315.HCl, (3Z,6Z)-3-(5-(2-Dimethylaminoethylthio)-2-thienyl)methylene-6-(3-trifluoromethylbenzylidene)-2,5-piperazinedione]		10		
CN(C)CC[S+]([O-])c1ccc(/C=c2\[nH]c(=O)/c(=C/c3ccccc3)[nH]c2=O)cc1 (stereo not drawn) [Compound 5141.HCl, (3Z,6Z)-6-Benzylidene-3-(4-(2-dimethylaminoethylsulphinyl)benzylidene)-2,5-piperazinedione]	0	6		34
CN(C)CCSc1ccc(/C=c2\[nH]c(=O)/c(=C/c3ccc4ccccc4n3)[nH]c2=O)s1 [Compound 5308, (3Z,6Z)-6-(5-(2-Dimethylaminoethylthio)-2-thienyl)methylene-3-(2-quinolylmethylene)-2,5-piperazinedione]		81	4.7	80
CN(C)CCSc1ccc(/C=c2\[nH]c(=O)/c(=C/c3ccc(OCc4ccccc4)cc3)[nH]c2=O)s1 [Compound 5482, (3Z,6Z)-6-(4-Benzyloxybenzylidene)-3-(5-(2-dimethylaminoethylthio)-2-thienyl)methylene-2,5-piperazinedione]	12	50	20	
CC(C)N(CCSc1ccc(/C=c2\[nH]c(=O)/c(=C/c3ccccc3)[nH]c2=O)s1)C(C)C [Compound 5399, (3Z,6Z)-6-Benzylidene-3-(5-(2-diisopropylaminoethylthio)-2-thienyl)methylene-2,5-piperazinedione]	23	43		
CN(C)CCSc1ccc(/C=c2\[nH]c(=O)/c(=C/c3ccc([N+](=O)[O-])cc3)[nH]c2=O)cc1 [Compound 5461, (3Z,6Z)-3-(4-(2-Dimethylaminoethylthio)benzylidene)-6-(4-nitrobenzylidene)-2,5-piperazinedione]	1	44		
CN(C)CCSc1ccc(/C=c2\[nH]c(=O)/c(=C/c3ccc(OCc4ccccc4)cc3)[nH]c2=O)cc1 [Compound 5481.HCl, (3Z,6Z)-3-(4-Benzyloxybenzylidene)-6-(4-(2-dimethylaminoethylthio)benzylidene)-2,5-piperazinedione]	10	55		
CN(C)CCSc1ccc(/C=c2\[nH]c(=O)/c(=C/c3cccnc3)[nH]c2=O)s1 [Compound 5470.HCl, (3Z,6Z)-6-(5-(2-Dimethylaminoethylthio)-2-thienyl)methylene-3-(3-pyridylmethylene)-2,5-piperazinedione]	1	1		
